Results taken from patent US20140272066A1, “GLUTAMIC ACID DERIVATIVES” (Givaudan S.A., priority 2011, published 2014).

Key:
[1] = Flavourist comparison of bouillon with and without compound; format: in vivo, human; settings: 200 ppm in bouillon; 4 flavourists
Description: A bouillon mix was prepared from 155.0 g of sodium chloride, 157.0 g of dextrose monohydrate (ex Tapioca), 0.2 g of celery oleoresin, 0.3 g of oleoresin turmeric Vegex, 0.2 g of oleoresin coriander seed, 444.8 g maltodextrin 5-8 DE, 40.0 g vegetable oil soya bean refined, 30.0 g yeast standard light, 4.0 g of onion powder, 4.0 g of garlic powder, 0.5 g of white pepper and 164.0 g of potato starch.
32 g of the well-mixed ingredients was added to 1 L of boiling water and stirred until completely dissolved.
A small group of flavourists (2 male, 2 female) compared the taste of the reference bouillon with that of a batch of the same bouillon containing 200 ppm of DL-threo-3-methylglutamic acid.

[2] = Flavourist taste panel, solution B (with compound) rated against reference solution A; format: in vivo, human; settings: 10 ppm compound in 0.5% NaCl and 0.03% MSG, vs solution A; scale -3 (much lower than base) to 3 (much higher); average of 4 flavourists
Description: Two solutions were prepared:
The samples were tasted by a small group of flavourists (2 male, 2 female, aged between 30 and 60). The intensity of the umami and salt taste of solution B was compared with that of the reference (solution A) and rated according to the following intensity scale:
The results (average of ratings given by the flavourists) were: […]

[3] = Flavourist comparison of white sauce with and without compound; format: in vivo, human; settings: 200 ppm in white sauce; 4 flavourists
Description: A white sauce mix was prepared from 380 g of modified starch Prejel, 200 g of whey powder Esprion 300, 200 g of fat powder (ex DMV), 115 g of sodium chloride, 85.3 g of maltodextrin 14, 3 g of onion powder, 0.2 g of curcuma extract powder (ex turmeric), 1.5 g of white pepper and 15 g of probase high impact.
80 g of the well-mixed ingredients was added to 1 L of boiling water and stirred well.
A small group of flavourists (2 male, 2 female) compared the taste of the reference white sauce with that of a batch of the same white sauce containing 200 ppm of DL-threo-3-methylglutamic acid.

[4] = Flavourist comparison of Béchamel sauce with cheese with and without compound; format: in vivo, human; settings: 200 ppm in Béchamel sauce with cheese; 4 flavourists
Description: A Béchamel sauce with cheese was prepared from 70 g of butter, 50 g of flower, 1000 g of milk, 5 g of sodium chloride, 0.3 g of MSG, 0.15 g of nutmeg powder, 0.25 g of black pepper and 80 g of cheese powder. A blanc roux was prepared from the butter and flower before adding the other ingredients.
A small group of flavourists (2 male, 2 female) compared the taste of the reference Béchamel sauce with cheese with that of a batch of the same Béchamel sauce with cheese containing 200 ppm of DL-threo-3-methylglutamic acid.

[5] = at concentrations comparable to MSG; cited from earlier work

SMILES	Taste of test bouillon compared with reference bouillon [1]	Intensity Taste Salt (NaCl) [2]	Intensity Taste Umami [2]	Taste of test white sauce compared with reference sauce [3]	Taste of test Béchamel sauce with cheese compared with reference [4]	Umami taste [5]
CC(CC(=O)O)C(N)C(=O)O (racemic) [DL-threo-3-methylglutamic acid, DL-threo-3-methylglutamic Acid]	more umami, had an enhanced body of salt and was more salivating	0.33	1.00	fuller and slightly more umami	richer and more longlasting	–
CCCCCC(CC(=O)O)C(N)C(=O)O (stereo not shown) [2-amino-3-pentylpentanedioic acid, 2-amino-3-pentylpentanedioic Acid]	–	0.00	0.33	–	–	–
CCCC(CC(=O)O)C(N)C(=O)O (stereo not shown) [2-amino-3-propylpentanedioic acid, 2-amino-3-propylpentanedioic Acid]	–	0.33	0.33	–	–	–
N[C@@H](CC(=O)O)C(=O)O [aspartic acid]	–	–	–	–	–	hardly any umami taste
